What all share (type): biochemical
In assay [1] the target is human α-thrombin (Homo sapiens (Human), UniProt P00734). The assay is described as follows: Enzymatic assay for thrombin (Boc-VPR-AMC substrate).
The target in assay [2] is mMASP-2 (Mus musculus (Mouse), UniProt Q91WP0). Kind of assay: Enzymatic inhibition of mMASP-2. Particulars: read-out: mMASP-2 Ki.
For assay [3], the target named is MASP-2 (CCP1-CCP2-SP) (Homo sapiens (Human), UniProt O00187). The assay is described as follows: biochemical. Particulars: for Ki: read-out: MASP-2 Ki.
Where [4] appears, read: selectivity for MASP-2 inhibition versus thrombin.
The mark [5] stands for this setting: MASP-2 inhibition versus thrombin.

The values below come from patent US11584714B2 (priority 2018, dated 2023).

Where a name gives a salt, the structure may show the parent alone. Read-outs that look alike come from different tables or passages of the source. Square brackets hold non-standard residues; d marks the D form. Peptide text beside a SMILES is read from it. * marks the point of attachment. dChg = N[C@@H](C(=O)O)C1CCCCC1; Agmatine = N=C(N)NCCCCN*; Aze = O=C(O)[C@@H]1CCN1 Some results are limits rather than exact numbers.

Chain of mMASP-2 (Q91WP0 20-685): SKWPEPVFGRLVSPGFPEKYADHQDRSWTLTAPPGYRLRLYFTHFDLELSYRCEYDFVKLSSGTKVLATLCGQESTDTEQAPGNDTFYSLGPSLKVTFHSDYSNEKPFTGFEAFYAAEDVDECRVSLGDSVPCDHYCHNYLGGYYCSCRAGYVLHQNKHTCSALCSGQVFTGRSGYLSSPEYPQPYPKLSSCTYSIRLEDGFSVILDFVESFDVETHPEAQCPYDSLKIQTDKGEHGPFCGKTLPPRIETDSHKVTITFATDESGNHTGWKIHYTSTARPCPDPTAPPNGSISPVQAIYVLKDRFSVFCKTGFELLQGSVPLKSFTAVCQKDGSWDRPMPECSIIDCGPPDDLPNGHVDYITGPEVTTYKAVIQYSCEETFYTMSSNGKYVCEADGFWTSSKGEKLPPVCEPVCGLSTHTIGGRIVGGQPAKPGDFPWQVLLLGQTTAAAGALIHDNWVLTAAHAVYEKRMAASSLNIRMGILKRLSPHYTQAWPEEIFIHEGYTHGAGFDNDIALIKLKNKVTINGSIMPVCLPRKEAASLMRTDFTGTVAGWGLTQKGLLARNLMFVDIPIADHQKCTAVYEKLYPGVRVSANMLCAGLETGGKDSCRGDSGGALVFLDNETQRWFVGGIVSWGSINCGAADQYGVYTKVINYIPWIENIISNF
Chain of MASP-2 (CCP1-CCP2-SP) (O00187 445-686): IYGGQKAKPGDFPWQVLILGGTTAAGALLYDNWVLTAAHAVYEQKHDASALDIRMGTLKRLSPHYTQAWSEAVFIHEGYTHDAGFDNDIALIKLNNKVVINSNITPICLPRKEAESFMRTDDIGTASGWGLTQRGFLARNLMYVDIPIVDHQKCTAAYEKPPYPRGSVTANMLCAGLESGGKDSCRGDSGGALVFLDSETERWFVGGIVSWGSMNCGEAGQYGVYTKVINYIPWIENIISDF

For `Cc1nc(N)ccc1CNC(=O)[C@H](C)NC(=O)[C@H]1C[C@@H](C(C)c2ccccc2)CN1` (mixture of isomers) [compound 1344, (2R,4S)—N—((S)-1-(((6-Amino-2-methylpyridin-3-yl)methyl)amino)-1-oxopropan-2-yl)-4-((±)-1-phenylethyl)pyrrolidine-2-carboxamide Dihydrochloride], the Ki was 2.5 to 10 µM in assay [1] (read-out: Thrombin Ki), less than 500 nM in assay [2] and less than 500 nM in assay [3]. Also, in assay [3] (setting [4]), the “MASP-2 vs. thrombin selectivity” value is on record as “**** (≥100-fold)”.
In the case of `N=C(N)NCCCCNC(=O)[C@@H]1CCN1C(=O)[C@H](N)C1CCCCC1` [compound 1006, (S)-1-((R)-2-Amino-2-cyclohexylacetyl)-N-(4-guanidinobutyl)azetidine-2-carboxamide Dihydrochloride] (H-[dChg]-[Aze]-Agmatine), the inhibition constant Ki in assay [1] (read-out: Thrombin Ki) was less than 0.5 µM; in assay [2] it was less than 500 nM; in assay [3], less than 500 nM. Moreover, the “MASP-2 vs. thrombin selectivity” value in assay [3] (setting [5]) is given as “−− (less than 1.0-fold)”.
As to `C[C@H](NC(=O)[C@H](N)CCc1ccccc1)C(=O)NCc1ccc2c(N)n[nH]c2c1` [compound 1039], the Ki in assay [1] (read-out: Thrombin Ki) was more than 25 µM; in assay [2] it was less than 25000 nM.
Take `CN[C@H](CCc1ccccc1)C(=O)N[C@@H](C)C(=O)NCc1ccc(C(=N)N)cc1` [compound 1044]: the Ki in assay [1] (read-out: Thrombin Ki) was less than 0.5 µM; in assay [2], less than 500 nM; in assay [3], less than 500 nM. The “MASP-2 vs. thrombin selectivity” value in assay [3] (setting [5]) was “** (5.0 to 25-fold)”.
On to `Cc1ccccc1CC[C@@H](N)C(=O)N[C@@H](C)C(=O)NCc1ccc(C(=N)N)cc1` [compound 1045], for which the Ki is less than 0.5 µM in assay [1] (read-out: Thrombin Ki), less than 500 nM in assay [2] and less than 500 nM in assay [3]. Also, in assay [3] (setting [5]), the “MASP-2 vs. thrombin selectivity” value is “** (5.0 to 25-fold)”.
As to `Cc1cccc(CC[C@@H](N)C(=O)N[C@@H](C)C(=O)NCc2ccc(C(=N)N)cc2)c1` [compound 1046], the Ki in assay [1] (read-out: Thrombin Ki) was less than 0.5 µM; in assay [2], less than 500 nM; in assay [3] it was less than 500 nM. For the same compound, the “MASP-2 vs. thrombin selectivity” value in assay [3] (setting [5]) was “** (5.0 to 25-fold)”.
Consider `C[C@H](NC(=O)[C@H](N)CCc1cccc(F)c1)C(=O)NCc1ccc(C(=N)N)cc1` [compound 1048], for which the inhibition constant Ki in assay [1] (read-out: Thrombin Ki) was less than 0.5 µM; in assay [2], less than 500 nM; in assay [3], less than 500 nM. The “MASP-2 vs. thrombin selectivity” value in assay [3] (setting [5]) is on record as “** (5.0 to 25-fold)”.
Take `Cc1cccc(CC[C@@H](N)C(=O)N[C@@H](C)C(=O)NCc2ccc(C(=N)N)cc2)c1C` [compound 1072]: the Ki in assay [1] (read-out: Thrombin Ki) is less than 0.5 µM; in assay [2], less than 500 nM; in assay [3] it was less than 500 nM. The “MASP-2 vs. thrombin selectivity” value in assay [3] (setting [5]) is on record as “** (5.0 to 25-fold)”.
On to `Cc1cc(C)cc(CC[C@@H](N)C(=O)N[C@@H](C)C(=O)NCc2ccc(C(=N)N)cc2)c1` [compound 1073], for which the results for the Ki in assay [1] (read-out: Thrombin Ki), in assay [2] and in assay [3] were less than 0.5 µM, less than 500 nM and less than 500 nM, respectively. For the same compound, the “MASP-2 vs. thrombin selectivity” value in assay [3] (setting [5]) is “** (5.0 to 25-fold)”.
With `COc1ccccc1CC[C@@H](N)C(=O)N[C@@H](C)C(=O)NCc1ccc(C(=N)N)cc1` [compound 1074], the Ki in assay [1] (read-out: Thrombin Ki) was less than 0.5 µM; in assay [2], less than 500 nM; in assay [3] it was less than 500 nM. In assay [3] (setting [5]), the “MASP-2 vs. thrombin selectivity” value is recorded as “** (5.0 to 25-fold)”.
With `COc1cccc(CC[C@@H](N)C(=O)N[C@@H](C)C(=O)NCc2ccc(C(=N)N)cc2)c1` [compound 1075], the results for the Ki in assay [1] (read-out: Thrombin Ki), in assay [2] and in assay [3] were less than 0.5 µM, less than 500 nM and less than 500 nM, respectively. Further, in assay [3] (setting [5]), the “MASP-2 vs. thrombin selectivity” value is listed as “** (5.0 to 25-fold)”.
For `C[C@H](NC(=O)[C@H](N)CCc1ccc(Cl)cc1)C(=O)NCc1ccc(C(=N)N)cc1` [compound 1080], the results for the Ki in assay [1] (read-out: Thrombin Ki), in assay [2] and in assay [3] were less than 0.5 µM, less than 500 nM and less than 500 nM, respectively. Moreover, the “MASP-2 vs. thrombin selectivity” value in assay [3] (setting [5]) is reported as “** (5.0 to 25-fold)”.
`C[C@H](NC(=O)[C@H](N)Cc1cccc2ccccc12)C(=O)NCc1ccc(C(=N)N)cc1` [compound 1092]: the figures for the Ki in assay [1] (read-out: Thrombin Ki), in assay [2] and in assay [3] were less than 0.5 µM, less than 500 nM and less than 500 nM, respectively. The “MASP-2 vs. thrombin selectivity” value in assay [3] (setting [5]) is “−− (less than 1.0-fold)”.
For the compound `C[C@H](NC(=O)[C@@H](CCc1ccccc1)NC1CCC1)C(=O)NCc1ccc(C(=N)N)cc1` [compound 1108], the Ki was less than 0.5 µM in assay [1] (read-out: Thrombin Ki), less than 500 nM in assay [2] and less than 500 nM in assay [3]. In addition, the “MASP-2 vs. thrombin selectivity” value in assay [3] (setting [5]) was “* (1.0 to 5.0-fold)”.
In the case of `CCCCCN[C@H](CCc1ccccc1)C(=O)N[C@@H](C)C(=O)NCc1ccc(C(=N)N)cc1` [compound 1125], the Ki in assay [1] (read-out: Thrombin Ki) is less than 0.5 µM; in assay [2], less than 500 nM; in assay [3], less than 500 nM. In addition, in assay [3] (setting [5]), the “MASP-2 vs. thrombin selectivity” value is “−− (less than 1.0-fold)”.
`C[C@H](NC(=O)[C@@H](CCc1ccccc1)NCc1ccc[nH]1)C(=O)NCc1ccc(C(=N)N)cc1` [compound 1128]: the Ki was less than 0.5 µM in assay [1] (read-out: Thrombin Ki), less than 500 nM in assay [2] and less than 500 nM in assay [3]. Further, the “MASP-2 vs. thrombin selectivity” value in assay [3] (setting [5]) is “* (1.0 to 5.0-fold)”.
For `C[C@H](NC(=O)[C@@H](CCc1ccccc1)NCc1ccccc1)C(=O)NCc1ccc(C(=N)N)cc1` [compound 1134], the Ki is less than 0.5 µM in assay [1] (read-out: Thrombin Ki), less than 500 nM in assay [2] and less than 500 nM in assay [3]. Further, the “MASP-2 vs. thrombin selectivity” value in assay [3] (setting [5]) is given as “−− (less than 1.0-fold)”.
As to `C[C@H](NC(=O)[C@@H](CCc1ccccc1)NCc1ccc(N2CCOCC2)cc1)C(=O)NCc1ccc(C(=N)N)cc1` [compound 1149], the Ki in assay [1] (read-out: Thrombin Ki) was less than 0.5 µM; in assay [2], less than 500 nM; in assay [3] it was less than 500 nM. Moreover, the “MASP-2 vs. thrombin selectivity” value in assay [3] (setting [5]) is reported as “** (5.0 to 25-fold)”.
As to `C[C@@H](NC(=O)[C@H](N)CCc1ccccc1)C(=O)NCc1ccc2nc(N)[nH]c2c1` [compound 1170], the Ki in assay [1] (read-out: Thrombin Ki) is more than 25 µM; in assay [2], less than 25000 nM; in assay [3] it was less than 500 nM. Also, in assay [3] (setting [5]), the “MASP-2 vs. thrombin selectivity” value is “**** (>100-fold)”.
For `C[C@H](NC(=O)[C@H](N)CCc1ccccc1)C(=O)NCCOc1ccc(N)nc1` [compound 1215], the Ki in assay [1] (read-out: Thrombin Ki) was more than 25 µM; in assay [2] it was less than 25000 nM.
In the case of `C[C@H](NC(=O)[C@H](CCc1ccccc1)NCc1c[nH]c2ccccc12)C(=O)NCc1ccc(C(=N)N)cc1` [compound 1223], the inhibition constant (Ki) in assay [1] (read-out: Thrombin Ki) is less than 0.5 µM; in assay [2], less than 500 nM; in assay [3], less than 500 nM. In addition, the “MASP-2 vs. thrombin selectivity” value in assay [3] (setting [5]) is recorded as “*** (25 to 100-fold)”.
Take `Cc1cccc([C@H]2CCN[C@@H](C(=O)N[C@@H](C)C(=O)NCc3ccc(C(=N)N)cc3)C2)c1` [compound 1231, (2R,4S)—N—((S)-1-((4-Carbamimidoylbenzyl)amino)-1-oxopropan-2-yl)-4-(m-tolyl)piperidine-2-carboxamide]: the Ki is 2.5 to 10 µM in assay [1] (Thrombin Ki (μM)), less than 500 nM in assay [2] and less than 500 nM in assay [3]. The “MASP-2 vs. thrombin selectivity” value in assay [3] (setting [4]) is recorded as “**** (≥100-fold)”.
Regarding `Cc1nc(N)ccc1CNC(=O)[C@H](C)NC(=O)[C@H]1C[C@H](c2cccc3ccccc23)CCN1` [compound 1342, (2R,4R)—N—((S)-1-(((6-Amino-2-methylpyridin-3-yl)methyl)amino)-1-oxopropan-2-yl)-4-(naphthalen-1-yl)piperidine-2-carboxamide Dihydrochloride], the Ki in assay [2] was 500 to 2500 nM; in assay [3], less than 500 nM.

The Ki is a measure of affinity in units of concentration, obtained from inhibition or displacement.
